From patent publication US20150272911A1, “Use of AMPK Inducers and Metformin for the Treatment of Fibromyalgia” (priority 2014, published 2015)

Key:
[1] = test system: blood mononuclear cells (BMCs) of patients with fibromyalgia; settings: BMCs of 20 fibromyalgia patients after metformin
Text: (§1) In order to study the role of AMPK phosphorylation in patients with fibromyalgia, AMPK activation was induced with metformin, a potent AMPK stimulator, in the BMCs of 20 patients.
(§2) In order to evaluate the effect of metformin in in vitro models of fibromyalgia, we will use mononuclear cells isolated from patients with fibromyalgia and kept under culture conditions, with RPMI medium with 10% serum and 5% CO2. Parallel to this, skin fibroblasts isolated from patients with fibromyalgia kept under culture with DMEM medium with 20% serum and 5% CO2 will be used. These cultures will enable us to evaluate the toxicity of different doses of metformin and compounds that induce AMPK phosphorylation, through the quantification of apotosis and cell growth, by counting the nuclei of live cells. Once the ideal working dose has been found, below 5 mM, we will be able to quantify the protection against stressful stimuli through the effect of hydrogen peroxide, a very potent free radical. Using flow cytometry, we will evaluate the production of ROS before and after the treatment below 5 mM. Other parameters to be quantified at these doses will be ATP, by means of luminometry, citrate synthase as a marker of mitochondrial mass, by means of enzyme kinetics spectrophotometry, and inflammatory interleukins by means of ELISA.

[2] = test system: inflammasome (IL-1β, IL-18) in BMCs of patients with fibromyalgia; experiment: IL-1β and IL-18 inflammasome interleukins in cells of fibromyalgia patients; type: cell-based, human
Text: as §1, §2

[3] = test system: fibroblasts of patients with fibromyalgia; experiment: Protection of patient fibroblasts exposed to hydrogen peroxide (cell death); type: cell-based, human; settings: low doses of hydrogen peroxide with metformin added, FIG. 4
Procedure: Parallel to this, skin fibroblasts isolated from patients with fibromyalgia kept under culture with DMEM medium with 20% serum and 5% CO2 will be used. […] Once the ideal working dose has been found, below 5 mM, we will be able to quantify the protection against stressful stimuli through the effect of hydrogen peroxide, a very potent free radical. Using flow cytometry, we will evaluate the production of ROS before and after the treatment below 5 mM. Other parameters to be quantified at these doses will be ATP, by means of luminometry, citrate synthase as a marker of mitochondrial mass, by means of enzyme kinetics spectrophotometry, and inflammatory interleukins by means of ELISA.

AMPK phosphorylation = experiment: Mouse model of AMPK activation deficiency induced by compound C: biochemical parameters; type: in vivo, mice of the Swiss strain; settings: for ATP (deficit) / citrate synthase (mitochondrial mass) / lipid peroxidation / activation of IL-1β interleukin of the inflammasome / activation of IL-18 interleukin of the inflammasome: mice, compound C 20 mg/kg/day i.p., alone or with metformin; for ATP (deficit): FIG. 5; for citrate synthase (mitochondrial mass): FIG. 6; for lipid peroxidation / activation of IL-1β interleukin of the inflammasome / activation of IL-18 interleukin of the inflammasome: serum; for lipid peroxidation: FIG. 7; for activation of IL-1β interleukin of the inflammasome / activation of IL-18 interleukin of the inflammasome: FIG. 8
Procedure: The mice were injected by intraperitoneal route once a day, the final daily dose being 20 mg/kg/day. Another group of mice received the treatment with Compound C in addition to Metformin. The treatment is performed until the day the animals are sacrificed. […]
Blood: The blood will be the starting-point to obtain serum or isolate leukocytes. The following will be measured in the serum: glucose, triglycerides, cholesterol, lactate, proteins, redox potential, protein oxidation, etc. The following will be measured in the leukocytes: ATP, inflammatory interleukins, oxidative stress, mitochondrial mass.

mice [4] = experiment: Symptoms of fibromyalgia (pain, depression) in mice with AMPK inhibited by compound c; type: in vivo; settings: then metformin
Text: In order to monitor the effect of metformin in an in vivo model of AMPK deficit, we will use mice that will be administered compound c, a specific inhibitor of AMPK phosphorylation, in time, and their behaviour will be characterised one week before starting the administrations of compound c and 7 days after the first administration. […] Prior to beginning the administration of compound c and metformin, and following the pain behaviour tests, other behavioural tests will be conducted which show other symptoms presented by patients with fibromyalgia: […]

[5] = neuropathic pain (Russe et al., 2013), adiposis dolorosa (Labuzek et al., 2013); cited from earlier work
mice [6] = experiment: Hot-plate test (nociception) in mice; type: in vivo; settings: after first five days of compound c; at Temp.<50° C. and Temp.>50° C.; FIG. 9
Text: Another symptom associated with pain in fibromyalgia is depression.
In order to monitor the effect of metformin in an in vivo model of AMPK deficit, we will use mice that will be administered compound c, a specific inhibitor of AMPK phosphorylation, in time, and their behaviour will be characterised one week before starting the administrations of compound c and 7 days after the first administration. This experimental design will provide us with a view as to how metformin inhibits the effects induced by the deficit of AMPK and its influence on the behaviour of the mice, monitoring, with particular interest, those tests that show an alteration of nociception (hot plate, visceral pain [J Neurochem (2007) 103: 2629-39] and muscle pain [J Neurosci (2007) 27: 10000-6]). Prior to beginning the administration of compound c and metformin, and following the pain behaviour tests, other behavioural tests will be conducted which show other symptoms presented by patients with fibromyalgia: […]

mice [7] = settings: after first five days of compound c; FIG. 10
Text: Following the first five days of administration of compound c, behavioural determinations were made in order to evaluate the symptoms. […] Another symptom associated with pain in fibromyalgia is depression.
Depression test: Tail suspension, forced swimming.

[8] = BMCs of fibromyalgia patients after metformin, FIG. 3

Row | SMILES | ATP levels ([1]; FIG. 1) | mitochondrial ROS ([1]; FIG. 2) | IL-1β interleukin of the inflammasome [2, 8] | IL-18 interleukin of the inflammasome [2, 8] | inhibition of the inflammasome ([2]; cells of patients with fibromyalgia) | cell death [3] | inhibition of the inflammasome (AMPK phosphorylation; mice with inhibited AMPK) | ATP (deficit) (AMPK phosphorylation) | citrate synthase (mitochondrial mass) (AMPK phosphorylation) | lipid peroxidation (AMPK phosphorylation) | activation of IL-1β interleukin of the inflammasome (AMPK phosphorylation) | activation of IL-18 interleukin of the inflammasome (AMPK phosphorylation) | symptoms typical of fibromyalgia, such as pain or depression (mice [4]) | analgesic effect [5] | response latency to the thermal stimulus (hot-plate test) (mice [6]) | paralysis (immobilisation) in tail suspension test, reflecting depression (mice [7])
1 | CN(C)C(=N)N=C(N)N [metformin] | significant recovery | decrease | decrease | decrease | demonstrated inhibition of the inflammasome | significantly reduced | demonstrated inhibition of the inflammasome | restored | restored | restored | restored | restored | recovery in the symptoms | strong analgesic effect | – | –
2 | c1cc(-c2cnn3cc(-c4ccc(OCCN5CCCCC5)cc4)cnc23)ccn1 [compound c] | – | – | – | – | – | – | – | induced alterations | induced alterations | induced alterations | induced alterations | induced alterations | presented symptoms typical of fibromyalgia | – | decrease in the response latency | greater paralysis
